According to paper PMC5855875, “Teixobactin analogues reveal enduracididine to be non-essential for highly potent antibacterial activity and lipid II binding” (Chemical Science, 2017):
≈ marks a conversion by molar mass, not a printed value. Bridge positions count the residues as written; N and C are the ends. Square brackets hold non-standard residues; d marks the D form. Peptide text beside a SMILES is read from it. d(aIle) = CC[C@H](C)[C@@H](N)C(=O)O; dNMeF = CN[C@H](Cc1ccccc1)C(=O)O

Experiments:
[1] = tested on: VRE 1: VRE ATCC 700802; experiment: organism not typed; conditions: for MIC (with polysorbate 80): VRE 1, MHB containing polysorbate 80 (0.002%, v/v), 37 °C, 24 h
Experimental: (§1) VIII. MIC testing (extended panel)
(§2) Bacterial cultures were grown overnight i n Mueller-Hinton Agar (MHA) plates and adjusted to a final concentration of 10 5 – 106 CFU/ml. 100 µl of inoculum in Meuller -Hinton broth (MHB) was mixed with equal volume of peptides (dissolved in MHB) at 2x their concentration in a 96 well plate. In parallel experiments, MIC values were determined in the media containing polysorbate 80 (0 .002%, v/v) to […]
(§3) prevent non-specific adsorption of the peptides to plastic surfaces. The final peptides concentrations […]
(§4) Positive and negative controls contained 200 µl of inoculum without any peptide dissolved in broth, respectively. The 96 well plates were then incubated at 37 °C for 24 h. […]
(§5) 80. Strain information: MRSA 1: MRSA ATCC 700699, MRSA 2: MRSA DR 42412 (sputum), MRSA
(§6) 3: MRSA DM21455 (eye). […] Staphylococcus aureus ATCC

[2] = tested on: VRE 2: VRE ATCC 29212; experiment: organism not typed; conditions: for MIC (with polysorbate 80): VRE 2, MHB containing polysorbate 80 (0.002%, v/v), 37 °C, 24 h
Experimental: as §1, §2, §3, §4, §5, §6

[3] = tested on: Staphylococcus aureus ATCC 29213; experiment: microbe, parasite or virus in culture; conditions: for MIC (with polysorbate 80): S. aureus ATCC 29213, MHB containing polysorbate 80 (0.002%, v/v)
Experimental: as §1, §2, §3
(§7) Positive and negative controls contained 200 µl of inoculum without any peptide dissolved in broth, respectively. The 96 well plates were then incubated at 37 °C for 24 h.
(§8) All the experiments were performed in two independent duplicates and the MIC was determined as the […]
(§9) Minimum bactericidal concentration
(§10) The lowest concentration in which no visible colonies could be detected was taken as the MBC.
as §5, §6

[4] = tested on: MRSA 1: MRSA ATCC 700699; experiment: microbe, parasite or virus in culture; conditions: for MIC (with polysorbate 80): MRSA 1, MHB containing polysorbate 80 (0.002%, v/v), two independent duplicates
Experimental: as §1, §2, §3, §7, §8, §9, §10, §5, §6

[5] = tested on: MRSA 3: MRSA DM21455 (eye); experiment: microbe, parasite or virus in culture; conditions: for MIC (with polysorbate 80): MRSA 3, MHB containing polysorbate 80 (0.002%, v/v)
Experimental: as §1, §2, §3, §7, §8, §9, §10, §5, §6

[6] = tested on: MRSA DM21455; experiment: Time-kill kinetics; type: cell-based, Methicillin-resistant Staphylococcus aureus; conditions: 0.5 μg mL^–1; MHB containing 0.002% v/v polysorbate 80; 37 °C; average of two independent experiments
Experimental: IX. Time-dependent killing of bacteria by teixobactin analogues 12 and 13 Time-kill kinetics against MRSA DM21455 strains (clinical isolates from patients) was carried out in MHB. Cultures were grown overnight in MHA plates and adjusted to a final inoculum of 10^5 – 10^6 CFU/ml in MHB (containing 0.002% v/v, polysorbate 80) with teixobactin analogues 12 and 13 maintained at a final concentration of 0.5 µg/ml. For vancomycin, the concentration was varied from 0.5 – 16 µg/ml without polysorbate 80. The tubes were then incubated at 37 °C. 100 µl of cell suspension was withdrawn at various time points (0, 2, 4, 8, 24 h), serially diluted (101-105 fold dilutions) and plated onto a MHA plates and incubated for 24 h at 37 °C.
Colonies were then enumerated […]. Colony counting too numerous to count (>300 colonies) was taken as 1010 CFU. Average values from two independent experiments are reported. […]
(also on this page, place not known: polyso rbate vancomycin , concentr ation 80 . wer e µ l (10 1-105 10 10 previously n - TL C three S76: (Ala10-teixobactin) literature.7 Lipid II Lipid II: Compound 8 = 1:1 Lipid II: Compound 16 = 1:1 Lipid II: Compound 8 = 1:2 Lipid II: Compound 16 = 1:2 Lipid II: Compound 8 = 1:4)

[7] = tested on: M. smegmatis ATCC 607; experiment: microbe, parasite or virus in culture; conditions: ATCC 607, 72 h
Experimental: (§11) were grown in Mueller Hinton broth (Oxoid) in triplicate. All incubations were at 37°C. Dilutions were carried out in triplicate. 100 µl of autoclaved Mueller Hinton broth was added to wells 2-12 in a 96-well plate. 200 µl of the peptide was added to well one at a concentration of 256 µg/mL. 100µl of peptide in well one was taken up and pipetted into well two. The mixture was then mixed via pipetting before 100µl was taken up and pipetted into well three. This process was repeated up to well 11. Once […]
(§12) peptide present. Thus, the concentrations (in µg/mL) were: 256, 128, 64, 32, 16, 8, 4, 2, 1, 0.5, 0.25 and no peptide present. Each well was then inoculated with 100µl of bacteria that had been diluted to an […]
(§13) This was repeated three times. The 96-well plates were then incubated at 37°C for 24 hours. The MIC was determined to be the lowest concentration at which there was no growth visible. […]
(§14) was repeated at an altered initial concentration of 64 µg/ml. Therefore, the new concentrations for MIC […]
Middlebrook 7H9 broth (SIGMA) supplemented to 5% Middlebrook ADC (SIGMA) growth

[8] = tested on: MRSA 2: MRSA DR 42412 (sputum); experiment: microbe, parasite or virus in culture; conditions: for MIC (with polysorbate 80): MRSA 2, MHB containing polysorbate 80 (0.002%, v/v), 37 °C, 24 h
Experimental: as §1, §2, §3, §4, §5, §6

[9] = tested on: MRSA ATCC 33591; experiment: microbe, parasite or virus in culture
Experimental: as §11, §12, §13, §14, §1, §2

## CC[C@H](C)[C@@H]1NC(=O)[C@H](C)NC(=O)[C@H](NC(=O)[C@H](CO)NC(=O)[C@@H](NC(=O)[C@H](NC(=O)[C@@H](CCC(N)=O)NC(=O)[C@H](CO)NC(=O)[C@@H](NC(=O)[C@@H](Cc2ccccc2)NC)[C@@H](C)CC)[C@@H](C)CC)[C@@H](C)CC)[C@H](C)OC(=O)[C@H]([C@@H](C)CC)NC1=O [Compound 12, Ile10-teixobactin] (H-[dNMeF]IS[dQ][d(aIle)]IS[dT]AII; ester 8-C)
[1]; ATCC 700802, 24 h
  MIC (without polysorbate 80): 1 µg/mL (≈ 0.832 µM)
[1]
  MIC (with polysorbate 80): ≤ 0.0625 µg/mL
[2]; ATCC 29212, 24 h
  MIC (without polysorbate 80): 1 µg/mL (≈ 0.832 µM)
[2]
  MIC (with polysorbate 80): ≤ 0.0625 µg/mL
[3]; ATCC 29213, 24 h
  MIC: ≤0.0625 μg mL^–1
  MIC (without polysorbate 80): 1 µg/mL (≈ 0.832 µM)
[3]; 37 °C, 24 h
  MIC (with polysorbate 80): ≤ 0.0625 µg/mL
[3]; Staphylococcus aureus ATCC 29213, plated on MHA, 37 °C, 24 h
  MBC: 0.125 μg mL^–1
[4]; ATCC 700699, 24 h
  MIC: 0.25 μg mL^–1
  MIC (without polysorbate 80): 2 µg/mL (≈ 1.66 µM)
[4]; MRSA 1 (MRSA ATCC 700699), plated on MHA, 37 °C, 24 h
  MBC: 1 μg mL^–1
[4]; 37 °C, 24 h
  MIC (with polysorbate 80): 0.25 µg/mL (≈ 0.208 µM)
[5]; 3: DM21455 (eye, 24 h)
  MIC: ≤0.0625 μg mL^–1
  MIC (without polysorbate 80): 2 µg/mL (≈ 1.66 µM)
[5]; MRSA 3 (MRSA DM21455), plated on MHA, 37 °C, 24 h
  MBC: 0.125 μg mL^–1
[5]; 37 °C, 24 h
  MIC (with polysorbate 80): ≤ 0.0625 µg/mL
[6]
  time to complete bactericidal activity: ≤ 8 h
[7]
  MIC: 0.5 μg mL^–1
[8]; 2: DR 42412 (sputum, 24 h)
  MIC: ≤0.0625 μg mL^–1
  MIC (without polysorbate 80): 2 µg/mL (≈ 1.66 µM)
[8]
  MIC (with polysorbate 80): ≤ 0.0625 µg/mL
[9]; ATCC 33591, 24 h
  MIC: 0.25 μg mL^–1

## CC[C@H](C)[C@H](NC(=O)[C@@H](Cc1ccccc1)NC)C(=O)N[C@@H](CO)C(=O)N[C@H](CCC(N)=O)C(=O)N[C@@H](C(=O)N[C@H](C(=O)N[C@@H](CO)C(=O)N[C@H]1C(=O)N[C@@H](C)C(=O)N[C@@H](CO)C(=O)N[C@@H]([C@@H](C)CC)C(=O)O[C@H]1C)[C@@H](C)CC)[C@@H](C)CC [Compound 14, Ser10-teixobactin] (H-[dNMeF]IS[dQ][d(aIle)]IS[dT]ASI; ester 8-C)
[9]; MRSA ATCC 33591, Mueller Hinton broth (Oxoid), peptides in DMSO containing 0.002% polysorbate 80, 37°C, 24 h, triplicate
  MIC: 16 μg mL^–1
[9]; from MIC against MRSA ATCC 33591
  times lower antibacterial activity than Arg10-teixobactin: 8 times

## CC[C@H](C)[C@H](NC(=O)[C@@H](Cc1ccccc1)NC)C(=O)N[C@@H](CO)C(=O)N[C@H](CCC(N)=O)C(=O)N[C@@H](C(=O)N[C@H](C(=O)N[C@@H](CO)C(=O)N[C@H]1C(=O)N[C@@H](C)C(=O)N[C@@H](Cc2ccccc2)C(=O)N[C@@H]([C@@H](C)CC)C(=O)O[C@H]1C)[C@@H](C)CC)[C@@H](C)CC [Compound 15, Phe10-teixobactin] (H-[dNMeF]IS[dQ][d(aIle)]IS[dT]AFI; ester 8-C)
[9]; ATCC 33591, 24 h
  MIC: 2 μg mL^–1

## CCCCCCCCCC(=O)N[C@@H](Cc1c[nH]c2ccccc12)C(=O)N[C@H](CC(N)=O)C(=O)N[C@@H](CC(=O)O)C(=O)N[C@@H]1C(=O)NCC(=O)N[C@@H](CCCN)C(=O)N[C@@H](CC(=O)O)C(=O)N[C@H](C)C(=O)N[C@@H](CC(=O)O)C(=O)NCC(=O)N[C@H](CO)C(=O)N[C@@H]([C@H](C)CC(=O)O)C(=O)N[C@@H](CC(=O)c2ccccc2N)C(=O)O[C@@H]1C [Daptomycin, reference compound]
[1]
  MIC (with polysorbate 80): 0.5 µg/mL (≈ 0.309 µM)
[2]
  MIC (with polysorbate 80): 0.5 µg/mL (≈ 0.309 µM)
[3]; 37 °C, 24 h
  MIC (with polysorbate 80): 0.25 µg/mL (≈ 0.154 µM)
[4]; 37 °C, 24 h
  MIC (with polysorbate 80): 0.5 µg/mL (≈ 0.309 µM)
[5]; 37 °C, 24 h
  MIC (with polysorbate 80): 0.5 µg/mL (≈ 0.309 µM)
[8]
  MIC (with polysorbate 80): 0.5 µg/mL (≈ 0.309 µM)
